What was measured:
HT-1080 cells [1] = test: LOC library screening and confirmation: inhibition of erastin-induced ferroptosis; format: cell-based, human; details: LOC library screening and confirmation studies, read-out: EC50, inhibitor of erastin-induced ferroptosis
Method: The LOC library was screened over the course of several days. 384-well glass bottom assay plates (Corning) were seeded with 1,000 HT-1080 cells/well the day before the experiment. The day of the experiment, LOC mother plates were thawed at room temperature for 1 hour and spun at 1000 rpm for 1 minute prior to use. Using a BioMek liquid handing robot, 2 μL of compound solution from each LOC library mother plate was transferred to a 384 deep well “daughter” plate (Grenier) containing 148 μL of cell culture media. The cell culture media in each assay plate was then removed by flicking and, using a BioMek FX, replaced with 36 μL of growth media containing erastin (5 μM final). To this was added 4 μL of the drug solution from the daughter plate, for a final screening concentration of 5.3 μg/mL for each LOC library compound. 4 wells containing DMSO alone (no erastin), 4 wells containing 100 μM DFO alone (no erastin), 4 wells containing erastin plus DMSO, and 4 wells containing erastin plus 100 μM DFO (positive control) were included as controls on each plate. Each drug daughter plate was aliquoted separately to duplicate assay plates. Plates were then spun briefly (1000 rpm, 5 seconds) and returned to the 37° C. tissue culture incubator. 24 hours later, cell viability was assessed by Alamar Blue as described above.
Candidate hits from the LOC library screen were identified. […]

[2] = system: ERK phosphorylation in HT-1080 cells; test: Western blotting of ERK phosphorylation; format: cell-based, human
Method: Cells were trypsinized, pelleted, and washed once in PBS. Cells were lysed for 20 minutes in buffer containing: 50 mM HEPES pH 7.4, 40 mM NaCl, 2 mM EDTA, 0.5% Triton X-100, 1.5 mM sodium orthovanadate, 50 mM NaF, 10 mM sodium pyrophosphate, 10 mM sodium β-glycerophosphate, and protease inhibitor tablet (Roche, Nutley, N.J.). Unlysed cells and debris were pelleted for 10 minutes at 10,000 rpm in a benchtop microcentrifuge at 4° C., and the supernatant was removed and mixed with 5×SDS loading buffer. Samples were separated by SDS-polyacrylamide gel electrophoresis. Western transfer was performed using the iBlot system (Invitrogen). Membrane was blocked for 1 hour in Licor Odyssey Blocking Buffer (LI-COR) and incubated in primary antibody overnight at 4° C. Following three 5-minute washes in Tris-buffered saline (pH 7.4) with 1% Tween-20 (TBS-T), membrane was incubated with secondary antibodies for 45 minutes in the dark. The membrane was washed again in TBST for three 5-minute washes with protection from light and scanned using the Odyssey Imaging System (LI-COR). Antibodies used were as follows: rabbit anti-phospho p42/44 MAPK (Cell Signaling Technology, #9101) and rabbit anti-p42/44 MAPK (Cell Signaling Technology, #9102). The secondary antibody was IR dye 800CW goat anti-rabbit IgG (LI-COR).

[3] = system: ROS production in HT-1080 cells; test: Analysis of reactive oxygen species production by flow cytometry (H2DCFDA, C11-BODIPY, MitoSOX); format: cell-based, human; details: erastin 10 μM; HT-1080 cells; H2DCFDA, C11-BODIPY
Method: The day before the experiment, 200,000 cells/well were seeded in 6-well dishes (Corning Inc., Corning, N.Y.). […] Data was collected from the FL1 (H2DCFDA, C11-BODIPY) or FL2 channel (MitoSOX). A minimum of 10,000 cells were analyzed per condition.

[4] = 2,2-diphenyl-1-picrylhydrazyl (DPPH) assay, cell-free antioxidant potential; details: test compound 0.05 mM, absorbance at 517 nm
Method: The stable radical DPPH (Blois, 1958) was dissolved in methanol to a final concentration of 0.05 mM. 1 mL of DPPH solution was added to 2 μL of each test compound dissolved in DMSO. The final concentration of each test compound was 0.05 mM. Samples were inverted several times and allowed to incubate at room temperature for 10 minutes. Samples were then aliquoted to white 96-well solid-bottom dishes (Corning) and absorbance at 517 nm was recorded using a TECAN M200 plate reader. All values were normalized to background (methanol only). The experiment was repeated twice. Results within each trial normalized to DMSO (=1.0), then averaged across trials.

HT-1080 cells [5] = test: Modulatory profile of lethal small molecules (effect of Fer-1 on lethality of various compounds); format: cell-based, human; details: resynthesized Fer-1 0.5 μM
Method: The modulatory effect (Me) for drug-drug interactions was computed as follows. First, plate-based background correction was performed using Alamar Blue values from empty (cell-free) wells included on each plate. Next, within each experiment, 100% viability is determined as the average Alamar Blue score for cells treated with modulator=DMSO and lethal=DMSO, and all Alamar Blue values were scaled from 0 to 1 with the DMSO×DMSO condition=1. The individual effects of each modulator and lethal (e.g. in the presence of DMSO) at all tested doses were then ascertained. […] Next, BExp was compared to the actual observed viability. For each informative drug-drug interaction (i.e. modulator=“DFO”, modulator concentration=100 μM, lethal=Erastin) the modulatory effect (Me) was equivalent to the maximum observed deviation, positive or negative, from BExp. By default, Me in DMSO-treated cells is equal to 0. This formula was empirically determined to provide a useful measure of modulation that is robust to differences in the shapes of individual dose-response curves for different inhibitors and lethal molecules. Me values for each inhibitor-lethal drug combination were hierarchically clustered and plotted as a heatmap using the heatmaps.2 function of the gplots library in R. […]

CCOC(=O)c1ccc(NC2CCCCC2)c(N)c1 [Fer-1, ferrostatin-1]
EC50 (HT-1080 cells [1]): 60 nM
ERK phosphorylation [2]: did not inhibit ERK phosphorylation
effect on erastin-induced ROS accumulation [3]: prevent erastin-induced accumulation of cytosolic and lipid ROS
intrinsic antioxidant capability (DPPH) [4]: readily oxidized the stable radical 2,2-diphenyl-1-picrylhydrazyl (DPPH)
specificity of death inhibition against various lethal compounds (HT-1080 cells [5]): specifically inhibited RSL-induced death, but not cell death induced by other oxidative lethal compounds and apoptosis-inducing agents

Source: patent US9580398B2, “Compounds, compositions, and methods for modulating ferroptosis and treating excitotoxic disorders” (The Trustees of Columbia University in the City of New York, priority 2012, dated 2017)
